According to US20220387358A1, “CERAMIDE ANALOG SACLAC MODULATES SPHINGOLIPID LEVELS AND MCL-1 SPLICING TO INDUCE APOPTOSIS IN ACUTE MYELOID LEUKEMIA” (University of Virginia Patent Foundation, priority 2019, published 2022):
pEC50: −log10 of the molar value.

What was measured:
[1] = system: OCI-AML2 cells; test: Caspase 3/7 activation; format: cell-based, human; conditions: increasing doses; 24 hours
Description: Apoptosis in cell lines was assessed after treating 2.5×10^5 cells per ml with drug or vehicle in a 48-well plate for the indicated time points and doses. Primary human AML cells were pre-incubated with SFEM for 48 hours before plating 2×10^5 cells in 24-well plates for the indicated times point and doses. Samples were stained using the Muse Annexin V & Dead Cell Kit (Millipore #MCH100105). Change in mitochondrial membrane potential in cell lines was measured with the Muse® MitoPotential Kit (#MCH100110, MilliporeSigma, Burlington, Mass., United States of America). Caspase activation was measured using the Muse® Caspase 3/7 Assay Kit (#MCH100108, MilliporeSigma, Burlington, Mass., United States of America). For rescue experiments, cells were plated at 2.5×10^4 well in a 96-well plate 24 hours after electroporation. Cells were treated with DMSO or […] for 48 hours and apoptosis was detected as stated above. All kits were used according to manufacturer's protocol. Cells were then analyzed using the Muse® Cell Analyzer (MilliporeSigma, Burlington, Massachusetts, United States of America) (35,36). Experiments included positive and negative controls for proper analysis.

[2] = system: MCL-1S transcript in OCI-AML2 cells; test: RT-qPCR of MCL-1S transcript; format: cell-based, human; conditions: 5 μM SACLAC; 6 hours
Description: Cells were seeded at 2.5×10^5 cells per ml in 6-well plates and treated with DMSO or SACLAC for six hours. Cells were harvested and resuspended in TRIzol reagent (#15596026, Invitrogen, Carlsbad, Calif., United States of America). RNA was isolated using Direct-zol RNA Miniprep Plus (#R2072, Zymo Research, Irvine, Calif., United States of America) according to the manufacturer's protocol. RNA was quantified using the Take3 microplate and the pre-programmed RNA quantification protocol on the Gen5 software for the Cytation 3 plate reader (BioTek, Winooski, Vt., United States of America). DNase treatment and reverse transcription were done using the iScript gDNA Clear cDNA Synthesis Kit (#1725035, Bio-Rad Laboratories, Hercules, Calif., United States of America) in accordance with the manufacturer's protocol. The qPCR reaction contained iTaq Universal SYBR Green (#1725122, Bio-Rad Laboratories, Hercules, Calif., United States of America), 140 ng cDNA and primers specific for HPRT (#100-25636, Bio-Rad Laboratories, Hercules, Calif., United States of America), B2M (#100-25636, Bio-Rad Laboratories, Hercules, Calif., United States of America) and MCL-1S (Eurofins (Luxembourg); forward, 5′-[…]-3′ (SEQ ID NO: 1) and reverse, 5′-[…]-3′ (SEQ ID NO: 2)) (38). This primer pair specifically amplifies Mcl-1 transcript variant 2 (MCL-1S) according to BLAST analysis. […]

[3] = system: OCI-AML2 cells; test: Western blot of SF3B1, Mcl-1S and Mcl-1L protein expression; format: cell-based, human; conditions: 24 hours
Description: Cells were plated at 2.5×10^5 cells per ml in 6-well plates and treated with drug, vehicle or siRNA at the indicated doses and time points. Cells were harvested, washed with PBS and lysed prior to preparation of protein extracts for western blotting.
More particularly, cells were lysed with RIPA buffer (#R0278, Sigma, St. Louis, Mo., United States of America) containing phosphatase inhibitor cocktails 2 and 3 (Sigma #P5726, #P0044) and protease inhibitor cocktail (#P8340, Sigma, St. Louis, Mo., United States of America). Protein was quantified using a bicinchoninic acid (BCA) protein assay kit (#23225, Pierce, Waltham, Mass., United States of America). Samples were resolved on a Bolt 4-12% SDS-PAGE gel (#NW00082, ThermoFisher Scientific, Waltham, Mass., United States of America) and transferred to PVDF membrane (#170-4274, Bio-Rad Laboratories, Hercules, Calif., United States of America). Antibodies were obtained from Cell Signaling Technology (Danvers, Mass., United States of America) unless indicated otherwise. Primary antibodies used were: Mcl-1 (#5453, RRID #AB 10694494), SF3B1 (#14434, RRID #AB 2798479), β-actin (#3700, RRID #AB_2242334) and AC (BD Biosciences #612302 (San Jose, California, United States of America), RRID #AB_399617). Secondary antibodies used were HRP-linked goat anti-mouse (#7076, RRID #AB_330924) or goat anti-rabbit IgG (#7074, RRID # AB_2099233). Clarity Max Western ECL Substrate (#1705062, Bio-Rad Laboratories, Hercules, Calif., United States of America) was added to visualize relative protein expression by chemiluminescence using the Bio-Rad ChemiDoc MP imaging system (Bio-Rad Laboratories, Hercules, Calif., United States of America). Quantification was done using Bio-Rad ImageLab 6.0.1 software (Bio-Rad Laboratories, Hercules, Calif., United States of America). For quantification, bands were normalized to β-actin as a loading control.

[4] = system: HL-60/VCR; test: Cell viability MTS assay; format: cell-based; conditions: Homo sapiens, HL60/VCR; 24-hour treatment
Description: (§1) For cell viability, cell lines were plated at 2.5×10^4 cells per well in a 96-well plate and treated with […] or DMSO vehicle (0.4% of total volume) for the indicated time points and doses. At the experiment end point, 3-(4,5-Dimethylthiazol-2-yl)-5-(3-carboxymethoxyphenyl)-2-(4-sulfophenyl)-2H-tetrazolium (MTS) Cell Proliferation Colorimetric Assay Kit (# K300-5000, BioVision, Inc., Milpitas, Calif., United States of America) reagent was added and incubated for 2 hours. Conversion of MTS to formazan product was measured by absorbance at 490 nm using a BioTek Cytation 3 plate reader (BioTeck, Winooski, Vt., United States of America). Absorbance was normalized to DMSO control, which was defined as 100% viability. Due to limited cell numbers, patient samples and normal samples were plated at 5×10^3 cells per well in a 384-well plate with […] or DMSO control for the indicated time points and doses. At the experiment end point, a luminescent reagent sold under the tradename [sequence]-GLOTM (#G7572, Promega Corporation, Madison, Wis., United States of America) was added. After 15 minutes, luminescence was read on a BioTek Cytation 3 plate reader (BioTek, Winooski, Vt., United States of America). Absorbance was normalized to DMSO control, which was defined as 100% viability.

[5] = system: OCI-AML2; test: Cell viability MTS assay; format: cell-based; conditions: Homo sapiens, 24-hour treatment
Description: as §1

[6] = system: THP-1; test: Cell viability MTS assay; format: cell-based; conditions: Homo sapiens, 24-hour treatment
Description: as §1

SMILES: CCCCCCCCCCCCCCC[C@@H](O)[C@H](CO)NC(=O)CCl [SACLAC, N-[(2S,3R)-1,3-dihydroxyoctadecan-2-yl]2-chloroacetamide]
- caspase 3/7 activation [1]: dose-dependent caspase activation
- MCL-1S transcript level [2]: Increased
- SF3B1 protein expression ([3]; SACLAC): reduced
- splicing factor SRSF1 ([3]; SACLAC): not affected
- increase in the ratio of Mcl-1S to Mcl-1L ([3]; increasing doses of SACLAC): 3 fold
- upregulation of the Mcl-1S isoform ([3]; increasing doses of SACLAC): 10 fold
- pEC50 [4]: 5.48
- pEC50 [5]: 5.74
- pEC50 [6]: 5.59
